Reference: paper PMC8597046, “Use of Mixture Dosing and Nonlinear Mixed Effect Modeling of Eight Environmental Contaminants in Rabbits to Improve Extrapolation Value of Toxicokinetic Data” (Environmental Health Perspectives, 2021)

Tests used:
[1] = TK assay, intravenous mixture dosing: serum concentrations and noncompartmental analysis (sparse data); settings: for Serum concentration: IV
Method: (§1) The experiment was carried out on thirty 10-wk old female New Zealand white rabbits (INRA 1777 line) weighing 2.37±0.14kg . […] Blood samples were taken at the designated time points post IV and oral administration: 15 min, 30 min, 1 h, 2 h, 4 h, 8 h, 12 h, 24 h, 3 d, 7 d, and 28 d from groups of 3 or 6 rabbits at each sampling time. Each rabbit was sampled 3 times and 3 rabbits were sampled at each sampling time, except at 30 min post administration, when 6 samples were collected to provide a sufficient blood volume for assaying the compounds. The doses and assay time points were selected to allow the calculation of TK parameters (Table 1) based on preliminary TK data. Residual concentrations of the compounds, and their possible evolution over time, were determined by sampling six entirely untreated rabbits during the TK study on the day of drug administrations, then 14 d and 28 d later.
(§2) The volume administered was adjusted to the animal’s body weight (BW) recorded the day before.
(§3) Intravenous administrations were performed via an indwelling catheter (22G Terumo, 0.9×25mm ) just after its insertion into an ear vein. […] For oral administrations, the mixture of all compounds ( 4mL/kg ) was deposited directly in the mouth of rabbits using a catheter (22G BD Insyte 22G, 0.9×25mm ). Prior to the study, the rabbits had been trained to gradually swallow water and then corn oil.
(§4) Blood samples were collected from the auricular artery using a 20 G needle ( 0.9×25mm ) and a dry tube. The first two blood samples were 8–10mL in volume, whereas a large volume (about 20mL ) was obtained antemortem immediately after electrical stunning (95LX rabbit stunner; Burdis), followed by exsanguination.
(§5) Serum concentration-time profiles of the different compounds were first analyzed using a noncompartmental approach (NCA) involving a sparse data option. Sparse data methodology consists of calculating TK parameters based on the mean profile of all the subjects in the dataset and is appropriate when a rich data series cannot be obtained, as in the present experiment ([FDA 1999]). The area under the concentration time curve ( AUC0−tlast ) and the area under the first moment curve ( AUMC0−tlast ) from dosing time ( t=0 ) to the time of the last measurable concentration were calculated using the linear trapezoidal rule after IV and oral dosing. The area under the serum concentration time curve from dosing time to infinity ( AUC0−inf ) was obtained by adding to AUC0−tlast the area extrapolated from the time of the last measurable concentration to infinity by dividing the last quantifiable serum concentration by the slope of the terminal phase ( λZ ), as estimated by linear regression using the best fit option of Phoenix®.
(§6) The clearance (CL) and apparent clearance (CL_F) were respectively estimated after IV and oral administrations by dividing the administered dose by the AUC0−inf calculated for each analyte.
(§7) The terminal half-life (HL) was estimated with Equation 1: (1) HL=0.69315/λZ where λz is the slope of the terminal phase.
The mean residence time (MRT) was estimated using Equation 3: (3) MRT=AUMCiv0−tlast /AUCiv0−tlast , where AUCMiv0−tlast and AUCiv0−tlast are the values of AUMC0−tlast and AUC0−tlast obtained after IV dosing.
The steady-state volume of distribution ( VSS ) was estimated using Equation 4: (4) VSS=CL×MRT, with CL and MRT as defined above.

[2] = TK assay, oral mixture dosing: serum concentrations and noncompartmental analysis (sparse data); settings: for Serum concentration: oral
Method: as §1, §2, §3, §4, §5, §6, §7
The oral bioavailability (F) was estimated using Equation 2: (2) F=AUCvo0−tlast×Doseiv/AUCiv0−tlast×Dosevo, where AUCiv0−tlast and AUCvo0-tlast are the values of AUC0−tlast obtained after IV and oral dosing, respectively, and Doseiv and Dosevo are the IV and oral doses.

[3] = oral mixture dosing, NCA, n=12, MEHP after oral DEHP

CCCCC(CC)COC(=O)c1ccccc1C(=O)O (stereo not drawn) [MEHP, mono(2-ethylhexyl)phthalate] gave a CL ([1]; IV mixture dosing, NCA, n=12) of 7.15 mL/min/kg, an MRT ([1]; IV mixture dosing, NCA, n=12) of 16.3 h and a VSS ([1]; IV mixture dosing, NCA, n=12) of 7.00 L/kg. The VZ ([1]; IV mixture dosing, NCA, n=12) was 7.85 L/kg, the Serum concentration ([1]; rabbit 1, 0.30 h) was 11380 nM and the Serum concentration ([1]; rabbit 1, 4.38 h) was 72 nM. For the same compound, the Serum concentration ([1]; rabbit 1, 24.03 h) was less than 18 nM, the Serum concentration ([1]; rabbit 2, 0.28 h) was 14440 nM and the Serum concentration ([1]; rabbit 2, 4.05 h) was 39 nM. It also gave a Serum concentration ([1]; rabbit 3, 0.35 h) of 3040 nM, a Serum concentration ([1]; rabbit 3, 4.05 h) of 59 nM and a Serum concentration ([1]; rabbit 4, 0.62 h) of 4130 nM. For the same compound, the Serum concentration ([1]; rabbit 4, 8.33 h) was 27.5 nM, the Serum concentration ([1]; rabbit 4, 72.00 h) was less than 18 nM and the Serum concentration ([1]; rabbit 5, 0.75 h) was 3760 nM. It also gave a Serum concentration ([1]; rabbit 5, 8.62 h) of 42 nM, a Serum concentration ([1]; rabbit 5, 72.03 h) of less than 18 nM and a Serum concentration ([1]; rabbit 6, 0.57 h) of 7060 nM. For the same compound, the Serum concentration ([1]; rabbit 6, 7.98 h) was 21 nM, the Serum concentration ([1]; rabbit 6, 71.97 h) was 36 nM and the Serum concentration ([1]; rabbit 7, 1.13 h) was 1210 nM. It also gave a Serum concentration ([1]; rabbit 7, 11.98 h) of less than 18 nM, a Serum concentration ([1]; rabbit 8, 1.12 h) of 820 nM and a Serum concentration ([1]; rabbit 8, 12.02 h) of less than 18 nM. It also gave a Serum concentration ([1]; rabbit 9, 1.03 h) of 720 nM, a Serum concentration ([1]; rabbit 9, 11.97 h) of less than 18 nM and a Serum concentration ([1]; rabbit 11, 2.08 h) of 480 nM. The Serum concentration ([1]; rabbit 12, 2.08 h) was 450 nM, the “AUC0−inf” value ([1]; serum, IV mixture dosing, NCA, n=12) was 9.73 µM·h and the Cmax ([1]; serum, IV mixture dosing, NCA, n=12, doses in Table 2 r3, BPSG after BPS dosing) was 14400 nM. For the same compound, the half-life ([1]; terminal, IV mixture dosing, NCA, n=12) was 12.7 h, the “F (fraction of the dose of DEHP that has been metabolized into MEHP)” value ([2]; NCA, MEHP after oral DEHP vs IV MEHP, as fraction) was 0.99 and the MRT [2, 3] was 12.0 h. It also gave a Tmax [2, 3] of 4.05 h, a Serum concentration ([2]; rabbit 13, 4.30 h, MEHP after oral DEHP) of 5150 nM and a Serum concentration ([2]; rabbit 14, 0.37 h, MEHP after oral DEHP) of 1090 nM. For the same compound, the Serum concentration ([2]; rabbit 14, 4.17 h, MEHP after oral DEHP) was 5840 nM, the Serum concentration ([2]; rabbit 15, 4.05 h, MEHP after oral DEHP) was 6870 nM and the Serum concentration ([2]; rabbit 15, 23.98 h, MEHP after oral DEHP) was 270 nM. It also gave a Serum concentration ([2]; rabbit 16, 0.55 h, MEHP after oral DEHP) of 1490 nM, a Serum concentration ([2]; rabbit 16, 8.22 h, MEHP after oral DEHP) of 2380 nM and a Serum concentration ([2]; rabbit 16, 72.00 h, MEHP after oral DEHP) of 33 nM. The Serum concentration ([2]; rabbit 17, 0.53 h, MEHP after oral DEHP) was 2290 nM, the Serum concentration ([2]; rabbit 17, 8.48 h, MEHP after oral DEHP) was 4200 nM and the Serum concentration ([2]; rabbit 17, 72.00 h, MEHP after oral DEHP) was 25 nM. The Serum concentration ([2]; rabbit 18, 0.55 h, MEHP after oral DEHP) was 2150 nM, the Serum concentration ([2]; rabbit 18, 8.00 h, MEHP after oral DEHP) was 3830 nM and the Serum concentration ([2]; rabbit 18, 71.96 h, MEHP after oral DEHP) was 91 nM. For the same compound, the Serum concentration ([2]; rabbit 19, 1.02 h, MEHP after oral DEHP) was 4160 nM, the Serum concentration ([2]; rabbit 19, 12.00 h, MEHP after oral DEHP) was 1610 nM and the Serum concentration ([2]; rabbit 20, 1.07 h, MEHP after oral DEHP) was 3160 nM. The Serum concentration ([2]; rabbit 20, 12.00 h, MEHP after oral DEHP) was 1930 nM, the Serum concentration ([2]; rabbit 21, 1.08 h, MEHP after oral DEHP) was 2800 nM and the Serum concentration ([2]; rabbit 21, 12.00 h, MEHP after oral DEHP) was 1910 nM. The Serum concentration ([2]; rabbit 22, 2.00 h, MEHP after oral DEHP) was 3290 nM, the Serum concentration ([2]; rabbit 23, 2.00 h, MEHP after oral DEHP) was 2930 nM and the Serum concentration ([2]; rabbit 24, 2.22 h, MEHP after oral DEHP) was 1570 nM. The “AUC0−inf” value ([2]; serum, oral mixture dosing, NCA, n=12, MEHP after oral DEHP) was 65.2 µM·h, the Cmax ([2]; serum, oral mixture dosing, NCA, n=12, doses in Table 3 r3, MEHP measured after oral DEHP, BPSG after BPS) was 6870 nM and the half-life ([2]; terminal, oral mixture dosing, NCA, n=12, MEHP after oral DEHP) was 10.4 h.
